These results are taken from patent US5518735A, “Meta-substituted phenylalanine derivatives” (priority 1990, dated 1996).

Where a name gives a salt, the structure may show the parent alone.

In one data set the test system is human plasma. As to conditions: in vitro, FIG. 4. As to the method:
Various coagulation tests were used in vitro to determine the efficacy of the inhibitors towards the thrombin-induced coagulation of its natural substrate fibrinogen. For that purpose, the thrombin time (TT), the activated partial thromboplastin time (aPTT) and the prothrombin time (PT, Quick value) were determined in human plasma.

The target in another data set is tPA (Homo sapiens, UniProt P00750). Briefly: Inhibition of tPA (Ki). Type of data set: biochemical. The conditions noted are these: Table 26.
tPA, sequence (P00750 36-562): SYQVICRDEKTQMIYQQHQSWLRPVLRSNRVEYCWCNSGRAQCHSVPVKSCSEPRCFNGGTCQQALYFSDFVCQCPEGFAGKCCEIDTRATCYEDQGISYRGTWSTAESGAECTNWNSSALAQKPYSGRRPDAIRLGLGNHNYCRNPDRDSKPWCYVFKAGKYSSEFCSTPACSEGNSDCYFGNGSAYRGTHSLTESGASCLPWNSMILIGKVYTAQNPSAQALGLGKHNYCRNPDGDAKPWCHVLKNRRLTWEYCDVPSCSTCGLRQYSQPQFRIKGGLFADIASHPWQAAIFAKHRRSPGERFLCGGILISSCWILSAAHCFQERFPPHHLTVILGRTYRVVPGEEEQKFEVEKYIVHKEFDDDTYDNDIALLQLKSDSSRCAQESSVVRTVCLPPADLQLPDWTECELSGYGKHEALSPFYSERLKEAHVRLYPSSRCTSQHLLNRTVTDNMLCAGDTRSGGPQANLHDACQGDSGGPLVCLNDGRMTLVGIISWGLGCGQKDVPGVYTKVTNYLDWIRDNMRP
The next data set addresses T1, factor XIIa (Homo sapiens, UniProt P00748).
T1 construct: glandular kallikrein, factor XIIa and plasma kallikrein
T1 sequence (P00748 373-615 limits assumed): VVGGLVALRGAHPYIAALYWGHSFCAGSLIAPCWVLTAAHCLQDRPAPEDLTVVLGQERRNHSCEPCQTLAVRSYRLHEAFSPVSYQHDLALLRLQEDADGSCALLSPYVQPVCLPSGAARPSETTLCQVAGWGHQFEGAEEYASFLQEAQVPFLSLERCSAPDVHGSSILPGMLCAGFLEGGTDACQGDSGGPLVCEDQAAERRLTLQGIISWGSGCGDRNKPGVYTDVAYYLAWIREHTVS
The data set is described as follows: Inhibition of factor XIIa (Ki). Type of data set: biochemical. As to conditions: Table 26.

Another data set addresses T2, plasmin (Homo sapiens, UniProt P00747).
T2 construct: trypsin and the related enzymes thrombin, plasmin, factor Xa, tPA
Briefly: Inhibition of plasmin (Ki). Type of data set: biochemical. The conditions noted are these: Table 26.

The next data set addresses glandular kallikrein (Sus scrofa, UniProt P00752). The data set is described as follows: Inhibition of glandular kallikrein (Ki). In kind it is biochemical. As to conditions: Table 26; read-out: Ki, Gland. Kallikrein.
The target of another data set is thrombin (Bos taurus, UniProt P00735). Briefly: Inhibition of thrombin (dissociation constant Ki). In kind it is biochemical.
The nature of data set [1]: Plasma concentration in rats after intravenous administration (HPLC). The conditions noted are these: for pharmacokinetic properties: in words, compared with NAPAP; for Concentration in plasma: i.v. 1 mg/kg.
Description: (§1) For the pharmacokinetic characterization, the plasma concentration of selected derivatives was determined in rats after intravenous (i.v.), subcutaneous (s.c.) and peroral (p.o.) application according to the following three-step procedure:
(§2) 1. A physiological NaCl solution of the substance to be tested was submitted to high pressure liquid chromatography (HPLC) in order to determine its characteristic substance-specific retention time with the chosen test conditions.
(§3) 2. The substance to be tested was diluted in vitro in rat plasma. This solution was also submitted to HPLC to see whether the characteristic peak of the substance once again appeared at the substance-specific retention time.
(§4) 3. […] Blood samples were taken at time intervals of 15 minutes, from which plasma samples were prepared by centrifugation; those samples were also submitted to HPLC to see whether the characteristic peak of the substance appeared again at the substance-specific retention time.
A further data set has as its target factor Xa (Bos taurus, UniProt P00743). The data set is described as follows: Inhibition of factor Xa (dissociation constant Ki). Type of data set: biochemical. The conditions noted are these: Tables 19-25; read-out: Ki, Factor Xa.
The next data set in a line: in vivo. The conditions noted are these: mouse.
In the next data set the target is T3, plasma kallikrein (Homo sapiens, UniProt P03952).
T3 construct: glandular kallikrein, factor XIIa and plasma kallikrein
T3 sequence (P03952 391-638 limits assumed, species assumed): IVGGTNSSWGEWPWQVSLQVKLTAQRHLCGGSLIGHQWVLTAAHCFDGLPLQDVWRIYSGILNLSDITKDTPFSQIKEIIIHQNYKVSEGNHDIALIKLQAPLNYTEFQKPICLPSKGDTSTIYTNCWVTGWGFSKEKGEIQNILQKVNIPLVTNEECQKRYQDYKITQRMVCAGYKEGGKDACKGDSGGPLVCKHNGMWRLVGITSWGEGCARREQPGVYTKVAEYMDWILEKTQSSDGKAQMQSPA
T3 sequence (P03952 20-390 partner limits assumed, species assumed): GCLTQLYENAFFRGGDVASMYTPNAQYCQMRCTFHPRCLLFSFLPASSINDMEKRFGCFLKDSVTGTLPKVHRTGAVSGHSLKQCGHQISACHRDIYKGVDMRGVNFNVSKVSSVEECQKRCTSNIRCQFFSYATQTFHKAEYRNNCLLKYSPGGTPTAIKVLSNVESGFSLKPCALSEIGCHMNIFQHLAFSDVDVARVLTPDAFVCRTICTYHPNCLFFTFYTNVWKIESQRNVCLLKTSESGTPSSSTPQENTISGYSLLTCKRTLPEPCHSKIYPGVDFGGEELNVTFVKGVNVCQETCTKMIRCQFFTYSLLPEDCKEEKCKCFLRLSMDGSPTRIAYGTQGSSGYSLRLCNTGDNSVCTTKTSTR
The data set is described as follows: Inhibition of plasma kallikrein (Ki). Type of data set: biochemical. The conditions noted are these: Table 26.

A short description of data set [2]: Plasma concentration in rats after subcutaneous administration (HPLC). The conditions noted are these: rat, plasma, sc, 5 mg/kg.
Description: as §1, §2, §3, §4
The target of the next data set is T4, trypsin (Bos taurus, UniProt P00760).
T4 sequence (P00760 24-246): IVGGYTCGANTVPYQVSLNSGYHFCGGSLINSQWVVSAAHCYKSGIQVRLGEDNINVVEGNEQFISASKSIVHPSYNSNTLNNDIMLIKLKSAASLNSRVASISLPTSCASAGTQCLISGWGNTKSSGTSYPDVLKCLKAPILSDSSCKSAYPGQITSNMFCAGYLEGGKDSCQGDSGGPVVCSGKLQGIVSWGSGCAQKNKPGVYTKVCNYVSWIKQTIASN
The data set is described as follows: Inhibition of trypsin (Ki). Type of data set: biochemical. The conditions noted are these: Table 26.

Data set [3] can be described thus: Plasma concentration in rats after oral administration (HPLC). The conditions noted are these: rat, plasma, po, 100 mg/kg.
Description: as §1, §2, §3, §4
The subject of data set [4] is thrombin-induced plasma coagulation. Briefly: Anticoagulant effect in vivo, thrombin-induced plasma coagulation of plasma of treated rats. The conditions noted are these: after i.v., s.c. and p.o. administration; FIG. 5. Also on record: species or system rat. As to the method:
After i.v., s.c. and p.o. administration of the compounds to be tested, the anticoagulant effect was determined in plasma of experimental animals (illustrated for compound 123 in FIG. 5).

The conditions of data set [5]: cited from earlier work.

T2 sequence (P00747 581-810 limits assumed): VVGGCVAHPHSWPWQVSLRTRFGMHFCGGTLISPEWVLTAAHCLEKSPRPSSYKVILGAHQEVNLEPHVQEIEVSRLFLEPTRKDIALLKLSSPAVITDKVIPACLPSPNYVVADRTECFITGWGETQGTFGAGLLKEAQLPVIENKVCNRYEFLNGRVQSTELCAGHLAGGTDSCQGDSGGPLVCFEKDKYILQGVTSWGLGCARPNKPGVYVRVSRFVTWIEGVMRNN
T2 sequence (P00747 97-580 partner limits assumed): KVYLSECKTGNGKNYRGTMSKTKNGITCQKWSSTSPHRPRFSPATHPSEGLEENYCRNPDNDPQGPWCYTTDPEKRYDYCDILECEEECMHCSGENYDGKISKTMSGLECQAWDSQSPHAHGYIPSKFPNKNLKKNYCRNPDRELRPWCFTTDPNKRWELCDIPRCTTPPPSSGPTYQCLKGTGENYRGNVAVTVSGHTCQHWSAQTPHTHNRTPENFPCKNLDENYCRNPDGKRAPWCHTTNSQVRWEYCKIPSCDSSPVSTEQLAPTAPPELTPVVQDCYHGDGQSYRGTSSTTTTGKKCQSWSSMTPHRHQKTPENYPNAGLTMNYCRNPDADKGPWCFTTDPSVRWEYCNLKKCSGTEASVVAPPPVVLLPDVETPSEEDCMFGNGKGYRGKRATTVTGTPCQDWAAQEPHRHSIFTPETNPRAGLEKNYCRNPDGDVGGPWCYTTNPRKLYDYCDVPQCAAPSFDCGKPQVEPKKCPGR
glandular kallikrein, sequence (P00752 8-246): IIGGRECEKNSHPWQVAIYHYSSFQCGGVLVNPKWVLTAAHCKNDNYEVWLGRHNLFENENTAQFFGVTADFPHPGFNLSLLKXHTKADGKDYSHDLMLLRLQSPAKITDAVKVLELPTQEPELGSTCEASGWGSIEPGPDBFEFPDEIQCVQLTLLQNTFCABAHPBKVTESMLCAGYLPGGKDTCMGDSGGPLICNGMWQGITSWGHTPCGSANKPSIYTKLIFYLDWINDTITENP
factor Xa, sequence (P00743 234-492 limits assumed): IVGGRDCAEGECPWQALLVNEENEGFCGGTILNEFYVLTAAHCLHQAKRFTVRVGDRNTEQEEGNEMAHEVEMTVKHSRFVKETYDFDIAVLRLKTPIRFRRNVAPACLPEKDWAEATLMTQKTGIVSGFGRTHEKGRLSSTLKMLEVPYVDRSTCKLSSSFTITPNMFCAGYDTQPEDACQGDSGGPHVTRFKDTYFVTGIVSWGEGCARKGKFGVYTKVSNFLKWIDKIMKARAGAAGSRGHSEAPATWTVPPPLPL
factor Xa, sequence (P00743 41-180 partner limits assumed): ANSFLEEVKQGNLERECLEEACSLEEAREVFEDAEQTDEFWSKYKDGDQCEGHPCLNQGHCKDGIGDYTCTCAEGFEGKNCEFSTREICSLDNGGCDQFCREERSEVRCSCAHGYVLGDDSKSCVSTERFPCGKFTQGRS

Broadly, the Ki is a dissociation constant, usually derived from enzyme kinetics or from competition with a known ligand. For the compound `CC1CCN(C(=O)C(Cc2cccc(C(=N)N)c2)NS(=O)(=O)c2ccc3ccccc3c2)CC1` (racemic) [Compound 34], the “influence on prothrombin time (PT)” value in the data set with human plasma is “obtained by higher inhibitor concentrations”. For the same compound, the Ki was 460 µM on tPA, over 1000 µM at factor XIIa and 4 µM at plasmin.

As a reminder, the LD50 is the dose expected to kill half of the subjects tested. Low readings indicate a more toxic substance, high ones a less toxic substance. Consider `N=C(NO)c1cccc(CC(NS(=O)(=O)c2ccc3ccccc3c2)C(=O)N2Cc3ccccc3CC2C(=O)O)c1` (racemic) [Compound 190, N-α-(2-Naphthylsulfonyl)-3-oxamidino-(D,L)-phenylalanyl-1,2,3,4-tetrahydroisoquinoline-3-carboxylic acid hydroiodide], for which the Ki at glandular kallikrein is over 1000 µM. In addition, the affinity on thrombin, expressed as Ki, was 2.4 µM. Further, the pharmacokinetic properties result in data set [1] was “improved pharmacokinetic properties”. This compound also had a Concentration in plasma in [1] (rat, 60 min) of 0 ng/mL. In [1] (rat, plasma, iv, 1 mg/kg), the concentration at 2 min is 3260 ng/mL, the concentration at 5 min was 1610 ng/mL, the concentration at 10 min worked out at 806 ng/mL and the concentration at 0.25 h came to 496 ng/mL. In [1] (rat, plasma, iv, 1 mg/kg), this compound had a concentration at 0.5 h of 477 ng/mL and a concentration at 0.75 h of 134 ng/mL. Also, the Ki at factor Xa turned out to be 130 µM. Further, in the data set “in vivo” (iv), the LD50 at 168 h is over 150 mg/kg. This compound showed an LD50 at 168 h in “in vivo” (po) of over 3000 mg/kg. This compound also returned a Ki on tPA of over 1000 µM. The same compound returned a Ki on plasma kallikrein of over 1000 µM. In addition, in data set [2], the concentration at 0.25 h turned out to be 340 ng/mL, the concentration at 0.5 h was determined as 330 ng/mL, the concentration at 0.75 h turned out to be 374 ng/mL and the concentration at 1 h worked out at 492 ng/mL. In [2], the concentration at 1.5 h is 354 ng/mL, the concentration at 2 h amounted to 270 ng/mL, the concentration at 3 h was 165 ng/mL and the concentration at 4 h turned out to be 152 ng/mL. In data set [2], this compound gave a concentration at 5 h of 138 ng/mL and a concentration at 6 h of 126 ng/mL. On factor XIIa, this compound showed a Ki of 460 µM. In addition, the Ki at plasmin was 120 µM. In addition, the Ki at trypsin amounted to 27 µM. In [3], this compound came in with a concentration at 0.25 h of 481 ng/mL, a concentration at 0.5 h of 1110 ng/mL, a concentration at 0.75 h of 796 ng/mL and a concentration at 1 h of 574 ng/mL. In data set [3], this compound came in with a concentration at 2 h of 542 ng/mL, a concentration at 3 h of 217 ng/mL, a concentration at 4 h of 113 ng/mL and a concentration at 5 h of 50 ng/mL.

For the compound `N=C(N)c1cccc(C[C@H](NS(=O)(=O)c2ccc3ccccc3c2)C(=O)N2CCC[C@@H]2C(=O)O)c1` [Compound 123, N-α-(2-Naphthylsulfonyl)-3-amidino-(L)-phenylalanyl-(D)-proline hydrochloride], the Ki on glandular kallikrein was over 1000 µM; on thrombin it was 0.68 µM; on factor Xa, 220 µM; on tPA, 300 µM; at plasma kallikrein it was 59 µM; at factor XIIa, over 1000 µM. The figures for the Ki on plasmin and on trypsin were 95 µM and 0.96 µM, respectively. The “anticoagulant / antithrombin effect in plasma of experimental animals” value in data set [4] was “the antithrombin effect can be detected in the clotting test”. Besides, in data set [1], the pharmacokinetic properties result was “improved pharmacokinetic properties”. In data set [1] (rat, 240 min), this compound came in with a Concentration in plasma of 0 ng/mL. In [1] (rat, plasma, iv, 1 mg/kg), the concentration at 2 min was found to be 2330 ng/mL. Further, the concentration at 5 min in [1] (rat, plasma, iv, 1 mg/kg) was 1180 ng/mL. The compound also gave a concentration at 10 min in data set [1] (rat, plasma, iv, 1 mg/kg) of 660 ng/mL. The concentration at 0.25 h in data set [1] (rat, plasma, iv, 1 mg/kg) is 440 ng/mL; in data set [2], 792 ng/mL; in data set [3], 230 ng/mL. The concentration at 0.5 h in data set [1] (rat, plasma, iv, 1 mg/kg) turned out to be 260 ng/mL; in data set [2], 1340 ng/mL; in data set [3], 170 ng/mL. Also, the concentration at 0.75 h in [1] (rat, plasma, iv, 1 mg/kg) turned out to be 185 ng/mL; in data set [2], 1380 ng/mL. The concentration at 1 h in data set [1] (rat, plasma, iv, 1 mg/kg) amounted to 160 ng/mL; in data set [3] it was 100 ng/mL. Besides, the concentration at 1.5 h turned out to be 68 ng/mL in [1] (rat, plasma, iv, 1 mg/kg); 1780 ng/mL in [2]; 133 ng/mL in [3]. Besides, the concentration at 2 h in data set [1] (rat, plasma, iv, 1 mg/kg) amounted to 32 ng/mL; in data set [2] it was 1600 ng/mL. Also, the concentration at 3 h in data set [1] (rat, plasma, iv, 1 mg/kg) stood at 22 ng/mL; in data set [2], 1140 ng/mL; in [3], 96 ng/mL. Also, the 50% lethal dose (LD50) at 168 h in “in vivo” (iv) was 188 mg/kg; in “in vivo” (po) it was over 3000 mg/kg. Moreover, the concentration at 4 h in data set [2] came to 927 ng/mL; in data set [3], 67 ng/mL.

For the compound `CN[C@H](Cc1ccccc1)C(=O)N1CCC[C@H]1C(=O)N[C@H](C=O)CCCN=C(N)N` [N-methyl-D-Phe-Pro-Arg-H], the “absorption after oral administration” value in data set [5] is listed as “absorption after oral administration has so far only been observed”.

For the compound BOC-D-Phe-Pro-Boro-Arg-C10 H16, in [5], the “absorption after oral administration” value was “absorption after oral administration has so far only been observed”.
